Test [1] has as its target T1, full-length recombinant rat vitamin D receptor (Rattus norvegicus, UniProt P13053).
T1 construct: Full-length recombinant rat receptor was expressed in E. coli BL21 (DE3) Codon Plus RIL cells; histidine tag (C); made in house; host or cells: E. coli BL21 (DE3) Codon Plus RIL
T1 sequence (P13053 1-423): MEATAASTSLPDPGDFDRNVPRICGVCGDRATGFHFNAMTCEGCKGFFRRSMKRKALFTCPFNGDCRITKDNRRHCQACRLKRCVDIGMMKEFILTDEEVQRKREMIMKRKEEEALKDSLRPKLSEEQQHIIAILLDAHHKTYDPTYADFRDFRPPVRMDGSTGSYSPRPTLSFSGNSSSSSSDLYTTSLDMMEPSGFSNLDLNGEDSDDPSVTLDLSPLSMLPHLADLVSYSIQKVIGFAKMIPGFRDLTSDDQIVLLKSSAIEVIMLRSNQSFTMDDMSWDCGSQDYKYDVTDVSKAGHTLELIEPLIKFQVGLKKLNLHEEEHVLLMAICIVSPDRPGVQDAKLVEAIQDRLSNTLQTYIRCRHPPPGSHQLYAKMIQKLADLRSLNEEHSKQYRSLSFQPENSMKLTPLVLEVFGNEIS
Kind of test: Vitamin D receptor binding, competition with [3H]-1,25(OH)2D3. Conditions: FIG. 1. How it is done:
Full-length recombinant rat receptor was expressed in E. coli BL21 (DE3) Codon Plus RIL cells and purified to homogeneity using two different column chromatography systems. The first system was a nickel affinity resin that utilizes the C-terminal histidine tag on this protein. The protein that was eluted from this resin was further purified using ion exchange chromatography (S-Sepharose Fast Flow). Aliquots of the purified protein were quick frozen in liquid nitrogen and stored at −80° C. until use. For use in binding assays, the protein was diluted in TEDK50 (50 mM Tris, 1.5 mM EDTA, pH7.4, 5 mM DTT, 150 mM KCl) with 0.1% Chaps detergent. The receptor protein and ligand concentration were optimized such that no more than 20% of the added radiolabeled ligand was bound to the receptor.
Radiolabeled and unlabeled ligands were added to 100 mcl of the diluted protein at a final ethanol concentration of ≦10%, mixed and incubated overnight on ice to reach binding equilibrium. The following day, 100 mcl of hydroxylapatite slurry (50%) was added to each tube and mixed at 10-minute intervals for 30 minutes. The hydroxylapaptite was collected by centrifugation and then washed three times with Tris-EDTA buffer (50 mM Tris, 1.5 mM EDTA, pH 7.4) containing 0.5% Titron X-100. […] Total binding was determined from the tubes containing only radiolabeled ligand.

Test [2] deals with Sprague-Dawley rats. The experiment in a line: Bone calcium mobilization (serum calcium) in vitamin D-deficient rats. In kind it is in vivo, rat. The note with it: for bone calcium mobilization activity (serum calcium): vitamin D-deficient rats, low calcium diet (0.02%), four consecutive ip doses, FIG. 4. How it is done: (§1) Male, weanling Sprague-Dawley rats were placed on Diet 11 (0.47% Ca) diet+AEK for one week followed by Diet 11 (0.02% Ca)+AEK for 3 weeks. The rats were then switched to a diet containing 0.47% Ca for one week followed by two weeks on a diet containing 0.02% Ca. Dose administration began during the last week on 0.02% calcium diet. Four consecutive ip doses were given approximately 24 hours apart. Twenty-four hours after the last dose, blood was collected from the severed neck and the concentration of serum calcium determined as a measure of bone calcium mobilization. The first 10 cm of the intestine was also collected for intestinal calcium transport analysis using the everted gut sac method.

Test [3] relates to 24-hydroxylase (24Ohase) gene promoter in ROS 17/2.8 (bone) cells. Kind of test: In vitro transcription assay (24-hydroxylase gene promoter, luciferase reporter). In kind it is cell-based. Conditions: FIG. 3; for EC50: ROS 17/2.8 cells, 16 hours after dosing, read-out: EC50, transcriptional activity in bone cells. How it is done: Transcription activity was measured in ROS 17/2.8 (bone) cells that were stably transfected with a 24-hydroxylase (24Ohase) gene promoter upstream of a luciferase reporter gene (Arbour et al., 1998). Cells were given a range of doses. Sixteen hours after dosing the cells were harvested and luciferase activities were measured using a luminometer. • RLU=relative luciferase units. Intestinal Calcium Transport and Bone Calcium Mobilization
(A reporter such as luciferase makes a cellular process visible.)

The subject of test [4] is Sprague-Dawley rats. Kind of test: Intestinal calcium transport, everted gut sac method, in vitamin D-deficient rats. The test is classed as in vivo, rat. How it is done:
as §1

In test [5] the test system is Human promyelocytic leukemia (HL60) cells. The experiment in a line: HL-60 differentiation (nitro blue tetrazolium reduction assay). The test is classed as cell-based. Conditions: FIG. 2; for EC50: HL60 cells, four days. How it is done:
The study drugs were dissolved in ethanol and the concentrations determined using UV spectrophotometry. Serial dilutions were prepared so that a range of drug concentrations could be tested without changing the final concentration of ethanol (≦0.2%) present in the cell cultures.
Human promyelocytic leukemia (HL60) cells were grown in RPMI-1640 medium containing 10% fetal bovine serum. The cells were incubated at 37° C. in the presence of 5% CO2.
HL60 cells were plated at 1.2×10^5 cells/ml. Eighteen hours after plating, cells in duplicate were treated with drug. Four days later, the cells were harvested and a nitro blue tetrazolium reduction assay was performed (Collins et al., 1979; J. Exp. Med. 149:969–974). The percentage of differentiated cells was determined by counting a total of 200 cells and recording the number that contained intracellular black-blue formazan deposits. Verification of differentiation to monocytic cells was determined by measuring phagocytic activity (data not shown).

“Also recorded” adds a separate entry of the source.

Consider `C=C1[C@H](O)CC(=C/C=C2\CCC[C@@H]3[C@@H](C(C)C)CC[C@@H]23)C[C@H]1O` [18,19-dinor-2MP, 2-methylene-18,19-dinor-1α-hydroxy-homopregnacalciferol], for which, in test [1] (full-length recombinant rat VDR), the Ki (usually a dissociation constant, usually derived from enzyme kinetics or from competition with a known ligand) is 0.22 nM. Further, the “binding to the receptor as compared to the standard 1,25-(OH)2D3” value in test [1] (relative to 1,25-(OH)2D3) was “one-fifth as well”. Further, the bone calcium mobilization entry is reported as “did not result in mobilization of bone calcium” in the test on Sprague-Dawley rats [2] (780 pmol/day for 4 consecutive days), “without any substantial effect” with Sprague-Dawley rats [2] (2340 pmol/day) and “without any substantial effect” with Sprague-Dawley rats [2] (7020 pmol/day). For the same compound, in the test on Sprague-Dawley rats [2], the “bone calcium mobilization activity (serum calcium)” value is “no measurable bone calcium mobilization activity; also recorded: little, if any, activity in mobilizing calcium from bone”. Moreover, in test [3], the “transcriptional activity relative to 1α,25-dihydroxyvitamin D3 in bone cells” value was “one-tenth”. Moreover, the EC50 (usually the concentration needed to bring the measured effect to its halfway point) in test [3] was determined as 15 nM; in test [5] (Homo sapiens, HL-60, 96 h) it was 15 nM. Also, the intestinal calcium transport result in the test with Sprague-Dawley rats [4] (780 pmol/day), in the test on Sprague-Dawley rats [4] (2340 pmol/day) and in the test on Sprague-Dawley rats [4] (7020 pmol/day) was “does not promote intestinal calcium transport” throughout. The “intestinal calcium transport activity” value with Sprague-Dawley rats [4] (vitamin D-deficient rats, low calcium diet (0.02%), four consecutive ip doses, FIG. 5) was “no measurable activity; also recorded: essentially devoid of intestinal calcium transport activity”. Also, the “potency on HL-60 cell differentiation compared with 1,25(OH)2D3” value in test [5] is recorded as “almost as potent as 1,25(OH)2D3”.

For the compound `C=C1/C(=C\C=C2/CCC[C@]3(C)[C@@H]([C@H](C)CCCC(C)(C)O)CC[C@@H]23)C[C@@H](O)C[C@@H]1O` [1,25(OH)2D3, 1α,25-dihydroxyvitamin D3, reference compound], in the test on Sprague-Dawley rats [2], the “bone calcium mobilization activity (serum calcium)” value was “increased serum calcium levels at all dosages”. Further, the EC50 in test [3] and in test [5] was 3.2 nM each time. The intestinal calcium transport entry in the test with Sprague-Dawley rats [4] (780 pmol/day) is “significant increase”.

With “2-methylene-19-nor-1α-hydroxy-homopregnacalciferol [Compound 2MP, reference compound]”, the intestinal calcium transport result with Sprague-Dawley rats [4] (2340 pmol/day) was “significant increase”.

These data come from patent US7238681B2, “2-Methylene-18,19-dinor-1α-hydroxy-homopregnacalciferol and its uses” (Wisconsin Alumni Research Foundation, priority 2004, dated 2007).
